# In ChEMBL document CHEMBL1909046, “DrugMatrix in vitro pharmacology data”:
# Target: Receptor tyrosine-protein kinase erbB-2 (Homo sapiens, UniProt P04626);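 further: inhibition of HER2 kinase enzyme activity, measured with Poly(Glu:Tyr) as the phosphorylation substrate; in other assays of this panel Not Active means under 50% inhibition at 10 µM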
# Test: biochemical
# Format: cell-based, Insect cells
# Settings: insect cells
# Sequence of Receptor tyrosine-protein kinase erbB-2 (P04626 whole entry): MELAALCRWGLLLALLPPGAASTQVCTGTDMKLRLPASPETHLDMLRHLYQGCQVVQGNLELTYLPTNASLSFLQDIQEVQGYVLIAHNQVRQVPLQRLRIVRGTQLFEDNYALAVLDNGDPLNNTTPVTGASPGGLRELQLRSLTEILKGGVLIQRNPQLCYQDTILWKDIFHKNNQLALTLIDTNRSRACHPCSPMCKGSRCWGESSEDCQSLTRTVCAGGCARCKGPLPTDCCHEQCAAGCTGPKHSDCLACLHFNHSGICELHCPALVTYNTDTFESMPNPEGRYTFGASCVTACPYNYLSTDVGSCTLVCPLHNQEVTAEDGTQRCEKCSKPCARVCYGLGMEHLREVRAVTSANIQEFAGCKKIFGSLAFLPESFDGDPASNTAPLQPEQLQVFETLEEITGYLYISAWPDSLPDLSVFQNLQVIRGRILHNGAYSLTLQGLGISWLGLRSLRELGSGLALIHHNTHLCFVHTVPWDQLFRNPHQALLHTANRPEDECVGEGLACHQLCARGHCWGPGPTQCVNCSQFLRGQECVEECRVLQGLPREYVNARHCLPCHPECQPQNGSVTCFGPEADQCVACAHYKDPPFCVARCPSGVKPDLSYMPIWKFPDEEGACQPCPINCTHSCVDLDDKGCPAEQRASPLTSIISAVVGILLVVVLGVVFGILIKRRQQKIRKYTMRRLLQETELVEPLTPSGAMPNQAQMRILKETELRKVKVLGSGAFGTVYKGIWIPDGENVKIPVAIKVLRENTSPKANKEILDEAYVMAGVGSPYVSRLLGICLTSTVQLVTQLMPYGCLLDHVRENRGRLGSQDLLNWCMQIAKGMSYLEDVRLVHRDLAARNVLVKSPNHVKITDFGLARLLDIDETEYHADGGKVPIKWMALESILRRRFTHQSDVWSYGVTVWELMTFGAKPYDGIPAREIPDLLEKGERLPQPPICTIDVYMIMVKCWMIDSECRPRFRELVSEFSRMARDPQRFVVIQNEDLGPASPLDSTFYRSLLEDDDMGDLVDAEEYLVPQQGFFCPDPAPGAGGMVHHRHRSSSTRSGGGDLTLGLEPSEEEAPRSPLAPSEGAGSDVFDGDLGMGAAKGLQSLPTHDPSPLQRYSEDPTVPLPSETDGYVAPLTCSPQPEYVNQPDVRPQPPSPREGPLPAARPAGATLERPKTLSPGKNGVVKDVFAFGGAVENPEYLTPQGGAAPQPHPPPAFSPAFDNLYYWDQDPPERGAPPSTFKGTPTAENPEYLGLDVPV
row,SMILES,IC50
1,C[C@H]1C[C@H]2[C@@H]3CCC4=CC(=O)C=C[C@]4(C)[C@@]3(Cl)[C@@H](O)C[C@]2(C)[C@@]1(O)C(=O)CO [BECLOMETHASONE],Not Active
2,Nc1c(CC(=O)O)cccc1C(=O)c1ccc(Br)cc1 [BROMFENAC],Not Active
3,CCCCN1CCCCC1C(=O)Nc1c(C)cccc1C.Cl (stereo not given) [BUPIVACAINE HYDROCHLORIDE],Not Active
4,C[C@@]12C(=O)OC(=O)[C@]1(C)[C@H]1CC[C@@H]2O1 [CANTHARIDIN],Not Active
5,CC1=C(C(=O)O)N2C(=O)[C@@H](NC(=O)[C@H](N)c3ccccc3)[C@H]2SC1 [CEPHALEXIN ANHYDROUS],Not Active

# Target: T1, Estrogen receptor (Homo sapiens, UniProt P03372); further: in other assays of this panel Not Active means under 50% inhibition at 10 µM
# T1 sequence (P03372 whole entry): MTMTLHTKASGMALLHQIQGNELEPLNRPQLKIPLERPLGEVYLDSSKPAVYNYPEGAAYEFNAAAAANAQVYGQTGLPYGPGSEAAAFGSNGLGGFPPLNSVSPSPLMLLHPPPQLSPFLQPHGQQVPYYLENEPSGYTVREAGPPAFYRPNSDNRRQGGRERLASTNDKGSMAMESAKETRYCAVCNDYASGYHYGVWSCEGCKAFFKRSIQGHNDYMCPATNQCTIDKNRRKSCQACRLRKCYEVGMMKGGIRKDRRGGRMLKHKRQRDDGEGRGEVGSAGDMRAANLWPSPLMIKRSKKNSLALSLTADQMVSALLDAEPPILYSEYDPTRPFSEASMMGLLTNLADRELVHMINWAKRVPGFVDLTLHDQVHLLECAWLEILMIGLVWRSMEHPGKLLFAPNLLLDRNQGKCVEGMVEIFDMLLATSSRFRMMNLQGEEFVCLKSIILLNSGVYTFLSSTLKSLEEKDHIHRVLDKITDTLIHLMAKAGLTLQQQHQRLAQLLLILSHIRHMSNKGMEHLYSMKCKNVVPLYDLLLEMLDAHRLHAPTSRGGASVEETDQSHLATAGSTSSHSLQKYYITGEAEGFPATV
# Test: not given
# Settings: sf9
row,SMILES,IC50
1,C[C@H]1C[C@H]2[C@@H]3CCC4=CC(=O)C=C[C@]4(C)[C@@]3(Cl)[C@@H](O)C[C@]2(C)[C@@]1(O)C(=O)CO [BECLOMETHASONE],Not Active
2,Nc1c(CC(=O)O)cccc1C(=O)c1ccc(Br)cc1 [BROMFENAC],Not Active
3,CCCCN1CCCCC1C(=O)Nc1c(C)cccc1C.Cl (stereo not given) [BUPIVACAINE HYDROCHLORIDE],Not Active
4,C[C@@]12C(=O)OC(=O)[C@]1(C)[C@H]1CC[C@@H]2O1 [CANTHARIDIN],Not Active
5,CC1=C(C(=O)O)N2C(=O)[C@@H](NC(=O)[C@H](N)c3ccccc3)[C@H]2SC1 [CEPHALEXIN ANHYDROUS],Not Active

# Tested on: not listed separately
# Test: DRUGMATRIX: GABAA, Chloride Channel, TBOB radioligand binding (ligand: [3H] TBOB)
# Format: cell membranes, Rattus norvegicus, Wistar, Cerebral cortex, Membrane
# Settings: Not Active = under 50% inhibition at 10 µM
SMILES,IC50,Ki
C[C@H]1C[C@H]2[C@@H]3CCC4=CC(=O)C=C[C@]4(C)[C@@]3(Cl)[C@@H](O)C[C@]2(C)[C@@]1(O)C(=O)CO [BECLOMETHASONE],Not Active,Not Active
Nc1c(CC(=O)O)cccc1C(=O)c1ccc(Br)cc1 [BROMFENAC],Not Active,Not Active
CCCCN1CCCCC1C(=O)Nc1c(C)cccc1C.Cl (stereo not given) [BUPIVACAINE HYDROCHLORIDE],Not Active,Not Active
C[C@@]12C(=O)OC(=O)[C@]1(C)[C@H]1CC[C@@H]2O1 [CANTHARIDIN],Not Active,Not Active
CC1=C(C(=O)O)N2C(=O)[C@@H](NC(=O)[C@H](N)c3ccccc3)[C@H]2SC1 [CEPHALEXIN ANHYDROUS],Not Active,Not Active

# Target: Melanocortin receptor 4 (Homo sapiens, UniProt P32245); further: in other assays of this panel Not Active means under 50% inhibition at 10 µM
# Test: not given
# Format: cell membranes, Membrane
# Settings: hek293
# Sequence of Melanocortin receptor 4 (P32245 whole entry): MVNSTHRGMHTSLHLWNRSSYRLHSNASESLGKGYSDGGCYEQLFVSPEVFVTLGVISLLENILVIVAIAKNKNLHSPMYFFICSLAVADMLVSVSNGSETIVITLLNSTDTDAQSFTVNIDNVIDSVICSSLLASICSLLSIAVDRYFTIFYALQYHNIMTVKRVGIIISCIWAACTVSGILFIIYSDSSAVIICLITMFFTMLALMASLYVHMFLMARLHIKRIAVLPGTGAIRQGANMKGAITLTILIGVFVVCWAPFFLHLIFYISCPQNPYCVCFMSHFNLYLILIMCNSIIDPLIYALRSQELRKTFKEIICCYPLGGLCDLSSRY
row,SMILES,IC50
1,C[C@H]1C[C@H]2[C@@H]3CCC4=CC(=O)C=C[C@]4(C)[C@@]3(Cl)[C@@H](O)C[C@]2(C)[C@@]1(O)C(=O)CO [BECLOMETHASONE],Not Active
2,Nc1c(CC(=O)O)cccc1C(=O)c1ccc(Br)cc1 [BROMFENAC],Not Active
3,CCCCN1CCCCC1C(=O)Nc1c(C)cccc1C.Cl (stereo not given) [BUPIVACAINE HYDROCHLORIDE],Not Active
4,C[C@@]12C(=O)OC(=O)[C@]1(C)[C@H]1CC[C@@H]2O1 [CANTHARIDIN],Not Active
5,CC1=C(C(=O)O)N2C(=O)[C@@H](NC(=O)[C@H](N)c3ccccc3)[C@H]2SC1 [CEPHALEXIN ANHYDROUS],Not Active

# Tested on: not listed separately
# Test: DRUGMATRIX: Phosphodiesterase PDE3 enzyme inhibition (substrate: [3H]cAMP + cAMP)
# Format: tissue-based, Homo sapiens
# Settings: platelet; Not Active = under 50% inhibition at 10 µM
SMILES,IC50,Ki
C[C@H]1C[C@H]2[C@@H]3CCC4=CC(=O)C=C[C@]4(C)[C@@]3(Cl)[C@@H](O)C[C@]2(C)[C@@]1(O)C(=O)CO [BECLOMETHASONE],Not Active,Not Active
Nc1c(CC(=O)O)cccc1C(=O)c1ccc(Br)cc1 [BROMFENAC],Not Active,Not Active
CCCCN1CCCCC1C(=O)Nc1c(C)cccc1C.Cl (stereo not given) [BUPIVACAINE HYDROCHLORIDE],Not Active,Not Active
C[C@@]12C(=O)OC(=O)[C@]1(C)[C@H]1CC[C@@H]2O1 [CANTHARIDIN],Not Active,Not Active
CC1=C(C(=O)O)N2C(=O)[C@@H](NC(=O)[C@H](N)c3ccccc3)[C@H]2SC1 [CEPHALEXIN ANHYDROUS],Not Active,Not Active

# Target: Cytochrome P450 2E1 (Homo sapiens, UniProt P05181); further: in other assays of this panel Not Active means under 50% inhibition at 10 µM
# Test: not given
# Settings: bti-tn-5b1-4
# Sequence of Cytochrome P450 2E1 (P05181 whole entry): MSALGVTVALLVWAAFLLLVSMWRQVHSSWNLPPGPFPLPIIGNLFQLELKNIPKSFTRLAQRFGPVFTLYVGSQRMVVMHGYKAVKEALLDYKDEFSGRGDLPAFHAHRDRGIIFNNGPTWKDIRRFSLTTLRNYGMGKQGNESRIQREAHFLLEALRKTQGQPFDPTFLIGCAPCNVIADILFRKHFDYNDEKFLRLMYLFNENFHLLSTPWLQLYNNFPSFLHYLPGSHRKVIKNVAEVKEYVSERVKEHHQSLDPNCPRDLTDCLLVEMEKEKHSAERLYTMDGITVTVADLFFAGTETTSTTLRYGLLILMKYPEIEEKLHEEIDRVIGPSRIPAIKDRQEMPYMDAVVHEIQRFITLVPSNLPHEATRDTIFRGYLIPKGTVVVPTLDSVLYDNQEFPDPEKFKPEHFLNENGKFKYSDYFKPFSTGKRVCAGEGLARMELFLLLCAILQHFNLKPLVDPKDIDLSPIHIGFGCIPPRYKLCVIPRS
SMILES,IC50,Ki
C[C@H]1C[C@H]2[C@@H]3CCC4=CC(=O)C=C[C@]4(C)[C@@]3(Cl)[C@@H](O)C[C@]2(C)[C@@]1(O)C(=O)CO [BECLOMETHASONE],Not Active,Not Active
Nc1c(CC(=O)O)cccc1C(=O)c1ccc(Br)cc1 [BROMFENAC],Not Active,Not Active
CCCCN1CCCCC1C(=O)Nc1c(C)cccc1C.Cl (stereo not given) [BUPIVACAINE HYDROCHLORIDE],Not Active,Not Active
C[C@@]12C(=O)OC(=O)[C@]1(C)[C@H]1CC[C@@H]2O1 [CANTHARIDIN],Not Active,Not Active
CC1=C(C(=O)O)N2C(=O)[C@@H](NC(=O)[C@H](N)c3ccccc3)[C@H]2SC1 [CEPHALEXIN ANHYDROUS],Not Active,Not Active

# Target: Insulin receptor (Rattus norvegicus, UniProt P15127); further: in other assays of this panel Not Active means under 50% inhibition at 10 µM
# Test: not given
# Format: cell membranes, Wistar, Liver, Membrane
# Settings: not given
# Sequence of Insulin receptor (P15127 27-759 limits assumed): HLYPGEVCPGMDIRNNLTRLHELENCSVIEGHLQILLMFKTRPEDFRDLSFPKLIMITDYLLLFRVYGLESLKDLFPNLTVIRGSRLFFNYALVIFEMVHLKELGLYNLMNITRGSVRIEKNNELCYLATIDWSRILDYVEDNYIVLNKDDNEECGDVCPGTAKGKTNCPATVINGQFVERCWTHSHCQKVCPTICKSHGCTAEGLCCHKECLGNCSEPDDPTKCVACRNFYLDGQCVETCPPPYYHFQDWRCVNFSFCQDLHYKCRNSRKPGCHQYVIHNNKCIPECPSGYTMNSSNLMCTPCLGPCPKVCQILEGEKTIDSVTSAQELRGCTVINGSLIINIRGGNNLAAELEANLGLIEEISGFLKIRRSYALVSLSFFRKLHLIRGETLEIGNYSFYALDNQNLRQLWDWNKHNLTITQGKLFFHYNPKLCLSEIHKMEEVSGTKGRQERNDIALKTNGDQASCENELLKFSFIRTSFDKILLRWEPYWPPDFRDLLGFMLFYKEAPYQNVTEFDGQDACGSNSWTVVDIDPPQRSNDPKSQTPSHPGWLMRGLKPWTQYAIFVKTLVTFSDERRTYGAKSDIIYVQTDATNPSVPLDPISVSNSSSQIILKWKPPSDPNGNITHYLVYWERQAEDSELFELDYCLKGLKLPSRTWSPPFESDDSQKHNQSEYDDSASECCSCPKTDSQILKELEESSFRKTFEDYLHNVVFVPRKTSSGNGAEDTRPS
# Sequence of Insulin receptor (P15127 764-1383 limits assumed): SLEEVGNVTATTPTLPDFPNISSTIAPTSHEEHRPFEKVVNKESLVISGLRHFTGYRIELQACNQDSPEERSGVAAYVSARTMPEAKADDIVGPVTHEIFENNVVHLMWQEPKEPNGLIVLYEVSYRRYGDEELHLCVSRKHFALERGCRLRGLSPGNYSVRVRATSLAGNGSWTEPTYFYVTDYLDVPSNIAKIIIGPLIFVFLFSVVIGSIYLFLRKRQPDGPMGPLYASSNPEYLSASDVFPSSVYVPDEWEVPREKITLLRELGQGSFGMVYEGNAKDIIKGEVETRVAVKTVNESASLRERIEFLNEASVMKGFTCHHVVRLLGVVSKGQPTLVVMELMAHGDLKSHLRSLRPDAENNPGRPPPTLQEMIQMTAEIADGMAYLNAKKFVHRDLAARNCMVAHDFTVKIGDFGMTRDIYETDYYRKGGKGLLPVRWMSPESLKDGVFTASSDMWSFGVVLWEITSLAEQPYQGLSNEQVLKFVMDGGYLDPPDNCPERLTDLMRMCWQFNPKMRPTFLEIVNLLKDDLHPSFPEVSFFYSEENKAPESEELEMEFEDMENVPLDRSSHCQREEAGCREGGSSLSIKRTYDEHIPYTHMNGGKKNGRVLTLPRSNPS
row,SMILES,IC50
1,C[C@H]1C[C@H]2[C@@H]3CCC4=CC(=O)C=C[C@]4(C)[C@@]3(Cl)[C@@H](O)C[C@]2(C)[C@@]1(O)C(=O)CO [BECLOMETHASONE],Not Active
2,Nc1c(CC(=O)O)cccc1C(=O)c1ccc(Br)cc1 [BROMFENAC],Not Active
3,CCCCN1CCCCC1C(=O)Nc1c(C)cccc1C.Cl (stereo not given) [BUPIVACAINE HYDROCHLORIDE],Not Active
4,C[C@@]12C(=O)OC(=O)[C@]1(C)[C@H]1CC[C@@H]2O1 [CANTHARIDIN],Not Active
5,CC1=C(C(=O)O)N2C(=O)[C@@H](NC(=O)[C@H](N)c3ccccc3)[C@H]2SC1 [CEPHALEXIN ANHYDROUS],Not Active

# Target: T2, Receptor-type tyrosine-protein phosphatase C (Homo sapiens, UniProt P08575)
# T2 sequence (P08575 whole entry): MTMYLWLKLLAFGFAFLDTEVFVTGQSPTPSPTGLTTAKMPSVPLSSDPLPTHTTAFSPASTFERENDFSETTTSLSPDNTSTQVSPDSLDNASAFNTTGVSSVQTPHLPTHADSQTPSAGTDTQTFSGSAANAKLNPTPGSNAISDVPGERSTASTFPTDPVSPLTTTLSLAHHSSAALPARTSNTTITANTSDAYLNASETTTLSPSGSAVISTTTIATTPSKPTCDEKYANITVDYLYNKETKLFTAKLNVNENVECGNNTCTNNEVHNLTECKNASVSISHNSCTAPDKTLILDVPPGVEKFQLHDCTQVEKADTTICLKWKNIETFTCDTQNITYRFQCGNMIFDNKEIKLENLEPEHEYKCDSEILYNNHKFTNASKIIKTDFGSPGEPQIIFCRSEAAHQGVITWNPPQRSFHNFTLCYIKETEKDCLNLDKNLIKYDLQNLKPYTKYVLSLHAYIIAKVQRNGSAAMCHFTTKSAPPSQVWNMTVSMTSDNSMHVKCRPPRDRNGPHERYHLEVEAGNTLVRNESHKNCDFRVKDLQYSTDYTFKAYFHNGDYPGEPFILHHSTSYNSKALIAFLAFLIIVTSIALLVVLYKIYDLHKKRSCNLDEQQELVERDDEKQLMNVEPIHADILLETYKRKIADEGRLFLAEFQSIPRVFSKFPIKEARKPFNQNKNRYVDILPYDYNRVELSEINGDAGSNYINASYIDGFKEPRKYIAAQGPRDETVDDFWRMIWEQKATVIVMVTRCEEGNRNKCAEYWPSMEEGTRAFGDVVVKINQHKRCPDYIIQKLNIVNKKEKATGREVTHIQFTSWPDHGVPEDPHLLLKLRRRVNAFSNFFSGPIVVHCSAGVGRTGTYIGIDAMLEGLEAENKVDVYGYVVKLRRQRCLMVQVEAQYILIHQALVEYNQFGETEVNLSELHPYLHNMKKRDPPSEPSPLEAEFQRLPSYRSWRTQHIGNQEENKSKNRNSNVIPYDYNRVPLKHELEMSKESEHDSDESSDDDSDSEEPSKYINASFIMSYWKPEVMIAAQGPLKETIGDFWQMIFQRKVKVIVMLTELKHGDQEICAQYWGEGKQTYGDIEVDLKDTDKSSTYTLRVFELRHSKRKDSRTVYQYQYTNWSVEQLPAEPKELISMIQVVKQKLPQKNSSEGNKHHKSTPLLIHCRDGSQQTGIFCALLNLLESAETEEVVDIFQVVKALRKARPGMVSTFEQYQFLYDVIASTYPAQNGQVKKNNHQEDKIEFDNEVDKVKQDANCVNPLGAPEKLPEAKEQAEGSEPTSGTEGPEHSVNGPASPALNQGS
# Test: not given
# Parameters: species or system Escherichia coli
# Settings: not given
row,SMILES,IC50
1,C[C@H]1C[C@H]2[C@@H]3CCC4=CC(=O)C=C[C@]4(C)[C@@]3(Cl)[C@@H](O)C[C@]2(C)[C@@]1(O)C(=O)CO [BECLOMETHASONE],Not Active
2,Nc1c(CC(=O)O)cccc1C(=O)c1ccc(Br)cc1 [BROMFENAC],Not Active
3,CCCCN1CCCCC1C(=O)Nc1c(C)cccc1C.Cl (stereo not given) [BUPIVACAINE HYDROCHLORIDE],Not Active
4,C[C@@]12C(=O)OC(=O)[C@]1(C)[C@H]1CC[C@@H]2O1 [CANTHARIDIN],Not Active
5,CC1=C(C(=O)O)N2C(=O)[C@@H](NC(=O)[C@H](N)c3ccccc3)[C@H]2SC1 [CEPHALEXIN ANHYDROUS],Not Active

# Target: T3, C-X-C chemokine receptor type 2 (Homo sapiens, UniProt P25025); further: in other assays of this panel Not Active means under 50% inhibition at 10 µM
# T3 sequence (P25025 whole entry): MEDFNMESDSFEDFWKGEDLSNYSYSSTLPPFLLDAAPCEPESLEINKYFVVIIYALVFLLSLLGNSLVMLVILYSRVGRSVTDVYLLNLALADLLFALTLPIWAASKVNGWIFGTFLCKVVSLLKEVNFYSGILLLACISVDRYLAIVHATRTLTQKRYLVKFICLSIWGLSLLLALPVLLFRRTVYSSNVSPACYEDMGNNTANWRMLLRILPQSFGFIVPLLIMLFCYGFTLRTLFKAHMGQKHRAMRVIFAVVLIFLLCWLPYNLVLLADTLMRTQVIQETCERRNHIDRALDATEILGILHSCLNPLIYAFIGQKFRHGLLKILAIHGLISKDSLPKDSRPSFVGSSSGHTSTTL
# Test: not given
# Format: cell membranes, Membrane
# Settings: cho-k1
row,SMILES,IC50
1,C[C@H]1C[C@H]2[C@@H]3CCC4=CC(=O)C=C[C@]4(C)[C@@]3(Cl)[C@@H](O)C[C@]2(C)[C@@]1(O)C(=O)CO [BECLOMETHASONE],Not Active
2,Nc1c(CC(=O)O)cccc1C(=O)c1ccc(Br)cc1 [BROMFENAC],Not Active
3,CCCCN1CCCCC1C(=O)Nc1c(C)cccc1C.Cl (stereo not given) [BUPIVACAINE HYDROCHLORIDE],Not Active
4,C[C@@]12C(=O)OC(=O)[C@]1(C)[C@H]1CC[C@@H]2O1 [CANTHARIDIN],Not Active
5,CC1=C(C(=O)O)N2C(=O)[C@@H](NC(=O)[C@H](N)c3ccccc3)[C@H]2SC1 [CEPHALEXIN ANHYDROUS],Not Active
